Test results reported in US11236081B2, “Crystalline salts of corydalmine” (priority 2018, dated 2022).
Values joined by “and” are separate entries in the source; they are usually repeats but may differ in a detail not shown here. Identical values can stand only once.

Key:
[1] = Solubility studies in water at 2 hours; assay type: physicochemical
[2] = Pharmacokinetic study: plasma concentration and plasma PK parameters after IV/PO dosing (LC-MS/MS, WinNonlin); assay type: in vivo, Male SD Rat; details: for AUCInf / AUClast / AUClast/D / AUC—% Extrap_obs / Cmax / MRTInf_obs / T1/2 / Tmax / AUCInf, Mean / AUClast, Mean / AUClast/D, Mean / AUC—% Extrap_obs, Mean / Cmax, Mean / MRTInf_obs, Mean / T1/2, Mean / Tmax, Mean: plasma
From the text: Pharmacokinetic and Brain Penetration Study
Dose formulation processing during dosing: The dose formulations will be kept at room temperature.
Concentrations of Test Article in the plasma samples will be analyzed using a LC-MS/MS method.
WinNonlin (Phoenix™, version 6.1) or other similar software will be used for pharmacokinetic calculations. The following pharmacokinetic parameters will be calculated, whenever possible from the plasma concentration versus time data:
IV administration: T1/2, C0, AUClast, AUCinf, MRTinf, Cl, Vss, Number of Points for Regression.
PO administration: T1/2, Cmax, Tmax, MRTinf, AUCinf, AUClast, F %, Number of Points for Regression.
The pharmacokinetic data will be described using descriptive statistics such as mean, standard deviation.

[3] = male SD rat, PO 10 mg/kg (equal to freebase), individual rats, vehicle 20% HP-β-CD in water (POA, freebase) or water (salts), 10 mg/kg
[4] = male SD rat, PO 10 mg/kg (equal to freebase), mean n=3, vehicle 20% HP-β-CD in water (POA, freebase) or water (salts)
[5] = PO (group POF), 10 mg/kg, individual rats R49, R50, R51, 10 mg/kg
[6] = PO (group POF), 10 mg/kg, mean of R49-R51

Q: For `COc1cc2c(cc1OC)C1Cc3ccc(O)c(OC)c3CN1CC2.CS(=O)(=O)O` (stereo not drawn) [TLZ-16 mesylate], which solubility in water [1] is on record?
A: approximately 20 mg/mL

Q: And the F ([2]; male SD rat, PO 10 mg/kg (equal to freebase) vs IV 3 mg/kg freebase, individual rats, vehicle 20% HP-β-CD in water (POA, freebase) or water (salts))?
A: 39.9% and 42.6% and 38.1%

Q: What about the “F, Mean” value ([2]; male SD rat, PO 10 mg/kg (equal to freebase) vs IV 3 mg/kg freebase, mean n=3, vehicle 20% HP-β-CD in water (POA, freebase) or water (salts)) of the same compound?
A: 40.2%

Q: And the concentration in plasma ([2]; male SD rat, PO 10 mg/kg (equal to freebase), 0 h, individual rats, vehicle 20% HP-β-CD in water (POA, freebase) or water (salts))?
A: BLOQ (BLOQ = below limit of quantitation (0.2 ng/mL))

Q: What about the concentration in plasma ([2]; male SD rat, PO 10 mg/kg (equal to freebase), 0.25 h, individual rats, vehicle 20% HP-β-CD in water (POA, freebase) or water (salts), 10 mg/kg) of the same compound?
A: 227 ng/mL and 253 ng/mL and 256 ng/mL

Q: What about the “concentration in plasma, Mean” value ([2]; male SD rat, PO 10 mg/kg (equal to freebase), 0.25 h, mean n=3, vehicle 20% HP-β-CD in water (POA, freebase) or water (salts)) of the same compound?
A: 245 ng/mL

Q: And the concentration in plasma ([2]; male SD rat, PO 10 mg/kg (equal to freebase), 0.5 h, individual rats, vehicle 20% HP-β-CD in water (POA, freebase) or water (salts), 10 mg/kg)?
A: 192 ng/mL and 233 ng/mL and 338 ng/mL

Q: And the “concentration in plasma, Mean” value ([2]; male SD rat, PO 10 mg/kg (equal to freebase), 0.5 h, mean n=3, vehicle 20% HP-β-CD in water (POA, freebase) or water (salts))?
A: 254 ng/mL

Q: And the concentration in plasma ([2]; male SD rat, PO 10 mg/kg (equal to freebase), 1 h, individual rats, vehicle 20% HP-β-CD in water (POA, freebase) or water (salts), 10 mg/kg)?
A: 162 ng/mL and 197 ng/mL and 208 ng/mL

Q: What about the “concentration in plasma, Mean” value ([2]; male SD rat, PO 10 mg/kg (equal to freebase), 1 h, mean n=3, vehicle 20% HP-β-CD in water (POA, freebase) or water (salts)) of the same compound?
A: 189 ng/mL

Q: What about the concentration in plasma ([2]; male SD rat, PO 10 mg/kg (equal to freebase), 2 h, individual rats, vehicle 20% HP-β-CD in water (POA, freebase) or water (salts), 10 mg/kg) of the same compound?
A: 211 ng/mL and 180 ng/mL and 271 ng/mL

Q: And the “concentration in plasma, Mean” value ([2]; male SD rat, PO 10 mg/kg (equal to freebase), 2 h, mean n=3, vehicle 20% HP-β-CD in water (POA, freebase) or water (salts))?
A: 221 ng/mL

Q: What about the concentration in plasma ([2]; male SD rat, PO 10 mg/kg (equal to freebase), 4 h, individual rats, vehicle 20% HP-β-CD in water (POA, freebase) or water (salts), 10 mg/kg) of the same compound?
A: 208 ng/mL and 155 ng/mL and 122 ng/mL

Q: And the “concentration in plasma, Mean” value ([2]; male SD rat, PO 10 mg/kg (equal to freebase), 4 h, mean n=3, vehicle 20% HP-β-CD in water (POA, freebase) or water (salts))?
A: 162 ng/mL

Q: And the concentration in plasma ([2]; male SD rat, PO 10 mg/kg (equal to freebase), 8 h, individual rats, vehicle 20% HP-β-CD in water (POA, freebase) or water (salts), 10 mg/kg)?
A: 70.3 ng/mL and 40.7 ng/mL and 35.2 ng/mL

Q: What about the “concentration in plasma, Mean” value ([2]; male SD rat, PO 10 mg/kg (equal to freebase), 8 h, mean n=3, vehicle 20% HP-β-CD in water (POA, freebase) or water (salts)) of the same compound?
A: 48.7 ng/mL

Q: And the concentration in plasma ([2]; male SD rat, PO 10 mg/kg (equal to freebase), 24 h, individual rats, vehicle 20% HP-β-CD in water (POA, freebase) or water (salts), 10 mg/kg)?
A: BLOQ (BLOQ = below limit of quantitation (0.2 ng/mL)) (2×) and 0.454 ng/mL

Q: And the AUCInf [2, 3]?
A: 1690 ng·h/mL and 1446 ng·h/mL and 1294 ng·h/mL

Q: And the AUClast [2, 3]?
A: 1331 ng·h/mL and 1444 ng·h/mL and 1190 ng·h/mL

Q: And the AUClast/D [2, 3]?
A: 133 kg·ng·h/mL/mg and 144 kg·ng·h/mL/mg and 119 kg·ng·h/mL/mg

Q: What about the “AUC—% Extrap_obs” value [2, 3] of the same compound?
A: 21.2% and 0.109% and 8.09%

Q: And the Cmax [2, 3]?
A: 227 ng/mL and 253 ng/mL and 338 ng/mL

Q: And the MRTInf_obs [2, 3]?
A: 5.40 h and 4.15 h and 3.26 h

Q: What about the T1/2 [2, 3] of the same compound?
A: 3.54 h and 2.40 h and 2.06 h

Q: And the Tmax [2, 3]?
A: 0.25 h (2×) and 0.5 h

Q: What about the “AUCInf, Mean” value [2, 4] of the same compound?
A: 1477 ng·h/mL

Q: What about the “AUClast, Mean” value [2, 4] of the same compound?
A: 1322 ng·h/mL

Q: What about the AUClast/D, Mean [2, 4] of the same compound?
A: 132 kg·ng·h/mL/mg

Q: And the “AUC—% Extrap_obs, Mean” value [2, 4]?
A: 9.82%

Q: What about the “Cmax, Mean” value [2, 4] of the same compound?
A: 273 ng/mL

Q: And the “MRTInf_obs, Mean” value [2, 4]?
A: 4.27 h

Q: And the “T1/2, Mean” value [2, 4]?
A: 2.67 h

Q: What about the “Tmax, Mean” value [2, 4] of the same compound?
A: 0.333 h

Q: What does the source list for `COc1cc2c(cc1OC)[C@@H]1Cc3ccc(O)c(OC)c3CN1CC2.O=S(=O)(O)O` [TLZ-16 sulfate]?
A: solubility in water [1]: approximately 20 mg/mL; F [2, 5]: 24.8% and 31.7% and 44.5%; F, Mean [2, 6]: 33.7%; concentration in plasma, Conc. ([2]; PO (group POF), 10 mg/kg, time 0 h, individual rats R49, R50, R51): BLOQ (BLOQ = below limit of quantitation (0.2 ng/mL)); concentration in plasma, Conc. ([2]; PO (group POF), 10 mg/kg, time 0.25 h, individual rats R49, R50, R51, 10 mg/kg): 231 ng/mL and 226 ng/mL and 349 ng/mL; concentration in plasma, Mean ([2]; PO (group POF), 10 mg/kg, time 0.25 h, mean of R49-R51): 269 ng/mL; concentration in plasma, Conc. ([2]; PO (group POF), 10 mg/kg, time 0.5 h, individual rats R49, R50, R51, 10 mg/kg): 229 ng/mL and 223 ng/mL and 401 ng/mL; concentration in plasma, Mean ([2]; PO (group POF), 10 mg/kg, time 0.5 h, mean of R49-R51): 284 ng/mL; concentration in plasma, Conc. ([2]; PO (group POF), 10 mg/kg, time 1 h, individual rats R49, R50, R51, 10 mg/kg): 117 ng/mL and 161 ng/mL and 240 ng/mL; concentration in plasma, Mean ([2]; PO (group POF), 10 mg/kg, time 1 h, mean of R49-R51): 173 ng/mL; concentration in plasma, Conc. ([2]; PO (group POF), 10 mg/kg, time 2 h, individual rats R49, R50, R51, 10 mg/kg): 119 ng/mL and 152 ng/mL and 189 ng/mL; concentration in plasma, Mean ([2]; PO (group POF), 10 mg/kg, time 2 h, mean of R49-R51): 153 ng/mL; concentration in plasma, Conc. ([2]; PO (group POF), 10 mg/kg, time 4 h, individual rats R49, R50, R51, 10 mg/kg): 103 ng/mL and 110 ng/mL and 203 ng/mL; concentration in plasma, Mean ([2]; PO (group POF), 10 mg/kg, time 4 h, mean of R49-R51): 139 ng/mL; concentration in plasma, Conc. ([2]; PO (group POF), 10 mg/kg, time 8 h, individual rats R49, R50, R51, 10 mg/kg): 22.4 ng/mL and 39.9 ng/mL and 87.8 ng/mL; concentration in plasma, Mean ([2]; PO (group POF), 10 mg/kg, time 8 h, mean of R49-R51): 50.0 ng/mL; concentration in plasma, Conc. ([2]; PO (group POF), 10 mg/kg, time 24 h, individual rats R49, R50, R51): BLOQ (BLOQ = below limit of quantitation (0.2 ng/mL)); AUCInf [2, 5]: 840 ng·h/mL and 1074 ng·h/mL and 2115 ng·h/mL; AUClast [2, 5]: 764 ng·h/mL and 899 ng·h/mL and 1486 ng·h/mL; AUClast/D [2, 5]: 76.4 kg·ng·h/mL/mg and 89.9 kg·ng·h/mL/mg and 149 kg·ng·h/mL/mg; AUC—% Extrap_obs [2, 5]: 9.10% and 16.3% and 29.8%; Cmax [2, 5]: 231 ng/mL and 226 ng/mL and 401 ng/mL; MRTInf_obs [2, 5]: 3.53 h and 4.44 h and 6.73 h; T1/2 [2, 5]: 2.37 h and 3.05 h and 4.97 h; Tmax [2, 5]: 0.25 h (2×) and 0.5 h; AUCInf, Mean [2, 6]: 1343 ng·h/mL; AUClast, Mean [2, 6]: 1049 ng·h/mL; AUClast/D, Mean [2, 6]: 105 kg·ng·h/mL/mg; AUC—% Extrap_obs, Mean [2, 6]: 18.4%; Cmax, Mean [2, 6]: 286 ng/mL; MRTInf_obs, Mean [2, 6]: 4.90 h; T1/2, Mean [2, 6]: 3.46 h; Tmax, Mean [2, 6]: 0.333 h
